Assay results as given in patent US5482931A, “Stabilized pharmaceutical peptide compositions” (Ferring AB, priority 1993, dated 1996).

Assays:
[1] = Adsorption of 125I-marked desmopressin to tubes of polystyrene, polypropene and glass; type: physicochemical; settings: 24 h, ambient temperature
Method: Sterile aqueou solutions of desmopressin marked with ^125 I (appr. 10,000 CPM/ml) containing benzalkonium chloride+saline, chlorobutanol+saline, or saline only, were all incubated in tubes of polystyrene, polypropene and glass for 24 h at ambient temperature.

[2] = aqueous solution of desmopressin; cited from earlier work

NC(=O)CC[C@@H]1NC(=O)[C@H](Cc2ccccc2)NC(=O)[C@H](Cc2ccc(O)cc2)NC(=O)CCSSC[C@@H](C(=O)N2CCC[C@H]2C(=O)N[C@H](CCCN=C(N)N)C(=O)NCC(N)=O)NC(=O)[C@H](CC(N)=O)NC1=O [desmopressin, 1-deamino-8-D-arginine vasopressin]
amount of desmopressin recovered from the plastic tubes ([1]; preservative-free solution (saline only), plastic tubes): about half | adsorption of desmopressin to tubes ([1]; solution containing benzalkonium chloride + saline): insignificant adsorption | adsorption of desmopressin to tubes ([1]; solution containing chlorobutanol + saline): insignificant adsorption | storage temperature required for the aqueous solution [2]: ≤ 8 °C
